ChEMBL document CHEMBL3352431, “Furazan and furoxan sulfonamides are strong α-carbonic anhydrase inhibitors and potential antiglaucoma agents” (Bioorg Med Chem, 2014)

Key:
[1] = target: Carbonic anhydrase 9 (Homo sapiens, UniProt Q16790); assay: Inhibition of human CA9 by CO2 hydration activity based stopped flow assay
[2] = test system: Oryctolagus cuniculus; assay: Antiglaucoma activity in New Zealand rabbit model of carbomer-induced ocular hypertension assessed as reduction in intraocular pressure dosed with 50 uL of 2% compound solution and measured after 3 to 4 hrs; assay type: functional, Eye
[3] = test system: Oryctolagus cuniculus; assay: Antiglaucoma activity in New Zealand rabbit model of hypertonic saline-induced ocular hypertension assessed as reduction in intraocular pressure dosed with 50 uL of 2% compound solution and measured after 1 to 2 hrs; assay type: functional, Eye
[4] = test system: Oryctolagus cuniculus; assay: Antiglaucoma activity in New Zealand rabbit model of hypertonic saline-induced ocular hypertension assessed as reduction in intraocular pressure dosed with 50 uL of 2% compound solution and measured after 2 hrs; assay type: functional, Eye

NS(=O)(=O)c1nonc1OCc1ccccc1
Ki [1]: 5.8 nM

NS(=O)(=O)c1c(-c2ccccc2)no[n+]1[O-]
Ki [1]: 7.4 nM

NS(=O)(=O)c1ccc(-c2c(S(=O)(=O)c3ccccc3)no[n+]2[O-])cc1
Ki [1]: 34.5 nM

NS(=O)(=O)c1ccc(Oc2no[n+]([O-])c2S(=O)(=O)c2ccccc2)cc1
Ki [1]: 6.4 nM

NS(=O)(=O)c1ccc(-c2no[n+]([O-])c2-c2ccccc2)cc1
Ki [1]: 62.8 nM

NS(=O)(=O)c1ccc(-c2nonc2Sc2ccccc2)cc1
Ki [1]: 57.6 nM

CCCCOc1nonc1S(N)(=O)=O
Ki [1]: 4.8 nM

NS(=O)(=O)c1ccc(-c2c(Sc3ccccc3)no[n+]2[O-])cc1
Ki [1]: 5040 nM

NS(=O)(=O)c1nonc1Oc1ccccc1
Ki [1]: 6.3 nM

NS(=O)(=O)c1ccc(-c2c([N+](=O)[O-])no[n+]2[O-])cc1
Ki [1]: 54.5 nM

NS(=O)(=O)c1no[n+]([O-])c1-c1ccccc1
Ki [1]: 7.1 nM

Cc1nonc1S(N)(=O)=O
Activity [2]: 10 mmHg | Ki [1]: 7.9 nM

NS(=O)(=O)c1ccc(-c2c(Oc3ccccc3)no[n+]2[O-])cc1
Ki [1]: 63.9 nM

NS(=O)(=O)c1ccc(-c2nonc2[N+](=O)[O-])cc1
Ki [1]: 54.7 nM

CC(C)COc1nonc1S(N)(=O)=O
Ki [1]: 3.9 nM

NC(=O)c1c(COc2ccc(S(N)(=O)=O)cc2)no[n+]1[O-]
Ki [1]: 32.3 nM | Activity [3]: 5 mmHg

NS(=O)(=O)c1ccc(-c2nonc2S(=O)(=O)c2ccccc2)cc1
Ki [1]: 63.6 nM

NS(=O)(=O)c1ccc(OCc2no[n+]([O-])c2-c2ccccc2)cc1
Ki [1]: 47.9 nM

Cc1no[n+]([O-])c1S(N)(=O)=O
Activity [2]: 10 mmHg | Ki [1]: 6.5 nM

NC(=O)c1nonc1COc1ccc(S(N)(=O)=O)cc1
Ki [1]: 49.8 nM | Activity [3]: 5 mmHg

NS(=O)(=O)c1ccc(OCc2nonc2-c2ccccc2)cc1
Ki [1]: 110 nM

COc1nonc1S(N)(=O)=O
Ki [1]: 5.8 nM

N#Cc1c(COc2ccc(S(N)(=O)=O)cc2)no[n+]1[O-]
Activity [4]: 8 mmHg | Ki [1]: 11.3 nM

NS(=O)(=O)c1ccc(-c2nonc2Oc2ccccc2)cc1
Ki [1]: 71.1 nM

NS(=O)(=O)c1ccc(-c2nonc2-c2ccccc2)cc1
Ki [1]: 62.9 nM

NS(=O)(=O)c1ccc(Oc2nonc2S(=O)(=O)c2ccccc2)cc1
Ki [1]: 7.3 nM

N#Cc1nonc1COc1ccc(S(N)(=O)=O)cc1
Activity [4]: 8 mmHg | Ki [1]: 10.8 nM

CCOc1nonc1S(N)(=O)=O
Ki [1]: 6.6 nM

NS(=O)(=O)c1nonc1-c1ccccc1
Ki [1]: 6.3 nM

NS(=O)(=O)c1ccc(-c2c(-c3ccccc3)no[n+]2[O-])cc1
Ki [1]: 58 nM

Cc1c(S(N)(=O)=O)no[n+]1[O-]
Activity [2]: 10 mmHg | Ki [1]: 7.3 nM
